Source: patent US20240067632A1, “WEE1 Degrading Compounds and Uses Thereof” (Bristol-Myers Squibb Company, priority 2022, published 2024)
pEC50: −log10 of the molar value.

Columns and labels:
[1] = test system: MKN45 cells; assay: MKN45 cell proliferation assay (Cell-Titer-Glo, 120 h); format: cell-based; conditions: for pEC50: Homo sapiens, MKN-45, 120 h, Cell-Titer-Glo, read-out: MKN45 Cell Prolif. 120 hr (EC50); for MKN45 Cell Prolif. 120 hr (Ymin-Obs): minimal percent of DMSO control observed in the concentrations tested
How it was run: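 Growth inhibition was read as blank-corrected Cell-Titer-Glo luminescence expressed as percent DMSO control after 120 h at 37 C, 400 cells/well. Compounds tested in triplicate as 10-point half-log series from 1 or 10 uM, 0.1% DMSO; four-parameter fit gave EC50, and lowest observed percent control was reported as Ymin-obs.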

[2] = target: T1, WEE1 (Homo sapiens, UniProt P30291+Q96SW2); assay: WEE1-ePL degradation assay (LentiX-WEE1-ePL-GSPT1-ND cells, InCELL Hunter luminescence, 4 h); format: cell-based; conditions: 293T-LentiX WEE1-ePL cells; for 293T-LentiX WEE1-ePL Degradation 4 hr (Ymin): lower limit of the fit (Ymin=0 luciferase inhibitor, Ymax DMSO control); for DC50: read-out: 293T-LentiX WEE1-ePL Degradation 4 hr (EC50)
T1 construct: C-terminal ePL-tagged (DiscoverX, Fremont, CA) full-length WEE1 expression construct; expressed in transfected cells; host or cells: LentiX-HEK293T (Invitrogen), lentiviral transduction; co-expressing GSPT1-GN (G576N, lacking the first 158 amino acids)
How it was run: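 HEK293T cells stably expressing C-terminal ePL-tagged full-length WEE1, 2500 cells/well, treated 4 h at 37° C with a 10-point 3-fold series from 1 or 10 uM. Remaining WEE1-ePL read by InCELL Hunter luminescence after 30 min. EC50 came from a four-parameter logistic fit, with Ymax set from DMSO control.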

pEC50 [1]	293T-LentiX WEE1-ePL Degradation 4 hr (Ymin) [2]	DC50 [2] [nM]	Structure (SMILES)	MKN45 Cell Prolif. 120 hr (Ymin-Obs) [1]
8.95	26.79	1.19	CC1(C)C[C@@H](c2ccc3cc(CN4CC[C@H](Oc5ccc6c(c5)CN([C@H]5CCC(=O)NC5=O)C6=O)C4)ncc3c2)CCO1 [(3S)-3-(5-{[(3S)-1-({7-[(4S)-2,2-dimethyloxan-4-yl]isoquinolin-3-yl}methyl)pyrrolidin-3-yl]oxy}-1-oxo-2,3-dihydro-1H-isoindol-2-yl)piperidine-2,6-dione]	9.866
8.99	34.39	1.34	O=C1CC[C@H](N2Cc3cc(O[C@H]4CCN(Cc5cc(F)c6nc([C@H]7CCOC7)ccc6c5)C4)ccc3C2=O)C(=O)N1 [(3S)-3-(5-{[(3S)-1-({8-fluoro-2-[(3R)-oxolan-3-yl]quinolin-6-yl}methyl)pyrrolidin-3-yl]oxy}-1-oxo-2,3-dihydro-1H-isoindol-2-yl)piperidine-2,6-dione]	9.528
8.84	34.19	1.73	O=C1CC[C@H](N2Cc3cc(O[C@H]4CCN(Cc5cc(F)c6nc([C@@H]7CCOC7)ccc6c5)C4)ccc3C2=O)C(=O)N1 [(3S)-3-(5-{[(3S)-1-({8-fluoro-2-[(3S)-oxolan-3-yl]quinolin-6-yl}methyl)pyrrolidin-3-yl]oxy}-1-oxo-2,3-dihydro-1H-isoindol-2-yl)piperidine-2,6-dione]	9.273
7.86	36.09	35.8	CC(=O)N1CCC(c2ncc3cc(CN4CC[C@H](Oc5ccc6c(c5)CN([C@H]5CCC(=O)NC5=O)C6=O)C4)ccc3n2)CC1 [(3S)-3-(5-{[(3S)-1-{[2-(1-acetylpiperidin-4-yl)quinazolin-6-yl]methyl}pyrrolidin-3-yl]oxy}-1-oxo-2,3-dihydro-1H-isoindol-2-yl)piperidine-2,6-dione]	9.035
7.93	36.62	10.1	CC(=O)N1CCC(c2ccc3cc(CN4CC[C@H](Oc5ccc6c(c5)CN([C@H]5CCC(=O)NC5=O)C6=O)C4)ccc3n2)CC1 [(3S)-3-(5-{[(3S)-1-{[2-(1-acetylpiperidin-4-yl)quinolin-6-yl]methyl}pyrrolidin-3-yl]oxy}-1-oxo-2,3-dihydro-1H-isoindol-2-yl)piperidine-2,6-dione]	10.38

Further lines, the compound ahead of its results:

Structure (SMILES)	pEC50 [1]	293T-LentiX WEE1-ePL Degradation 4 hr (Ymin) [2]	DC50 [2] [nM]	MKN45 Cell Prolif. 120 hr (Ymin-Obs) [1]
O=C1CC[C@H](N2Cc3cc(O[C@@H]4CN(Cc5ccc6nc([C@@H]7CCOC7)ccc6c5)CC4(F)F)ccc3C2=O)C(=O)N1 [(3S)-3-(5-{[(3R)-4,4-difluoro-1-({2-[(3S)-oxolan-3-yl]quinolin-6-yl}methyl)pyrrolidin-3-yl]oxy}-1-oxo-2,3-dihydro-1H-isoindol-2-yl)piperidine-2,6-dione]	8.20	30.03	8.72	8.017
O=C1CC[C@H](N2Cc3cc(O[C@@H]4CN(Cc5ccc6nc(C7CCOCC7)ncc6c5)CC4(F)F)ccc3C2=O)C(=O)N1 [(3S)-3-(5-{[(3R)-4,4-difluoro-1-{[2-(oxan-4-yl)quinazolin-6-yl]methyl}pyrrolidin-3-yl]oxy}-1-oxo-2,3-dihydro-1H-isoindol-2-yl)piperidine-2,6-dione]	7.34	22.61	105	10.37
O=C1CC[C@H](N2Cc3cc(O[C@@H]4CN(Cc5cc6ccc(C7CCOCC7)cc6cn5)CC4(F)F)ccc3C2=O)C(=O)N1 [(3S)-3-(5-{[(3R)-4,4-difluoro-1-{[7-(oxan-4-yl)isoquinolin-3-yl]methyl}pyrrolidin-3-yl]oxy}-1-oxo-2,3-dihydro-1H-isoindol-2-yl)piperidine-2,6-dione]	8.66	26.77	2.76	9.546
CC1(C)C[C@H](c2ncc3cc(CN4CC[C@H](Oc5ccc6c(c5)CN([C@H]5CCC(=O)NC5=O)C6=O)C4)ccc3n2)CCO1 [(3S)-3-(5-{[(3S)-1-({2-[(4R)-2,2-dimethyloxan-4-yl]quinazolin-6-yl}methyl)pyrrolidin-3-yl]oxy}-1-oxo-2,3-dihydro-1H-isoindol-2-yl)piperidine-2,6-dione]	7.81	29.31	32.3	11.79
CC1(C)C[C@H](c2ccc3cc(CN4CC[C@H](Oc5ccc6c(c5)CN([C@H]5CCC(=O)NC5=O)C6=O)C4)ccc3n2)CCO1 [(3S)-3-(5-{[(3S)-1-({2-[(4R)-2,2-dimethyloxan-4-yl]quinolin-6-yl}methyl)pyrrolidin-3-yl]oxy}-1-oxo-2,3-dihydro-1H-isoindol-2-yl)piperidine-2,6-dione]	8.74	26.67	1.85	11.19
CC1(C)C[C@@H](c2ccc3cc(CN4CC[C@H](Oc5ccc6c(c5)CN([C@H]5CCC(=O)NC5=O)C6=O)C4)cc(F)c3n2)CCO1 [(3S)-3-(5-{[(3S)-1-({2-[(4S)-2,2-dimethyloxan-4-yl]-8-fluoroquinolin-6-yl}methyl)pyrrolidin-3-yl]oxy}-1-oxo-2,3-dihydro-1H-isoindol-2-yl)piperidine-2,6-dione]	8.78	28.17	3.8	9.621
CC1(C)C[C@@H](c2ncc3cc(CN4CC[C@H](Oc5ccc6c(c5)CN([C@H]5CCC(=O)NC5=O)C6=O)C4)ccc3n2)CCO1 [(3S)-3-(5-{[(3S)-1-({2-[(4S)-2,2-dimethyloxan-4-yl]quinazolin-6-yl}methyl)pyrrolidin-3-yl]oxy}-1-oxo-2,3-dihydro-1H-isoindol-2-yl)piperidine-2,6-dione]	8.11	26.33	24.9	8.718
CC1(C)C[C@@H](c2ccc3cc(CN4CC[C@H](Oc5ccc6c(c5)CN([C@H]5CCC(=O)NC5=O)C6=O)C4)ccc3n2)CCO1 [(3S)-3-(5-{[(3S)-1-({2-[(4S)-2,2-dimethyloxan-4-yl]quinolin-6-yl}methyl)pyrrolidin-3-yl]oxy}-1-oxo-2,3-dihydro-1H-isoindol-2-yl)piperidine-2,6-dione]	8.87	24.69	1.77	9.025
CC1(C)C[C@H](c2ccc3cc(CN4CC[C@H](Oc5ccc6c(c5)CN([C@H]5CCC(=O)NC5=O)C6=O)C4)ncc3c2)CCO1 [(3S)-3-(5-{[(3S)-1-({7-[(4R)-2,2-dimethyloxan-4-yl]isoquinolin-3-yl}methyl)pyrrolidin-3-yl]oxy}-1-oxo-2,3-dihydro-1H-isoindol-2-yl)piperidine-2,6-dione]	9.23	24.44	1.09	9.482
